Measured values published in publication PMC4657098, “A Review of the Updated Pharmacophore for the Alpha 5 GABA(A) Benzodiazepine Receptor Model” (International Journal of Medicinal Chemistry, 2015).
Read-outs that look alike come from different tables or passages of the source.

What was measured:
α4β3γ2 GABAA/BzR = molecular target: T1, α4β3γ2 GABAA/BzR (Homo sapiens, UniProt P18507+P48169); assay: biochemical; type: binding; details: read-out: Ki α4
T1 construct: expressed in transfected cells; host or cells: LTK cells (given for XLi-093 only)

α3β3γ2 GABAA/BzR = α3β3γ2 GABAA/BzR (Homo sapiens, UniProt P18507+P34903); assay: Competition binding to HEK cell membranes, α3β3γ2; parameters: expressed in transfected cells; details: read-out: Ki α3
α2β3γ2 GABAA/BzR = α2β3γ2 GABAA/BzR (Homo sapiens, UniProt P18507+P47869); assay: Competition binding to HEK cell membranes, α2β3γ2; parameters: expressed in transfected cells; details: read-out: Ki α2
α1β3γ2 GABAA/BzR [1] = molecular target: T2, α1β3γ2 GABAA/BzR (Homo sapiens, UniProt P14867+P18507); assay: Competition binding to HEK cell membranes, α1β3γ2; parameters: expressed in transfected cells; details: read-out: Ki α1
α5β3γ2 GABAA/BzR [2] = molecular target: T3, α5β3γ2 GABAA/BzR (Homo sapiens, UniProt P18507+P31644); assay: Competition binding to HEK cell membranes, α5β3γ2; parameters: expressed in transfected cells; details: read-out: Ki α5
α6β3γ2 GABAA/BzR = α6β3γ2 GABAA/BzR (Homo sapiens, UniProt P18507+Q16445); assay: Competition binding to HEK cell membranes, α6β3γ2; parameters: expressed in transfected cells; details: read-out: Ki α6
α1β3γ2 GABAA/BzR [3] = molecular target: T2, α1β3γ2 GABAA/BzR; parameters: expressed in transfected cells; host or cells: LTK cells (given for XLi-093 only); details: Figure 4; read-out: Ki α1; cited from earlier work
α5β3γ2 GABAA/BzR [4] = molecular target: T3, α5β3γ2 GABAA/BzR; parameters: expressed in transfected cells; host or cells: LTK cells (given for XLi-093 only); details: Figure 4; read-out: Ki α5; cited from earlier work

| SMILES | Ki (α4β3γ2 GABAA/BzR) [nM] | Ki (α3β3γ2 GABAA/BzR) [nM] | Ki (α2β3γ2 GABAA/BzR) [nM] | Ki (α1β3γ2 GABAA/BzR [1]) [nM] | Ki (α5β3γ2 GABAA/BzR [2]) [nM] | Ki (α6β3γ2 GABAA/BzR) [nM] | Ki (α1β3γ2 GABAA/BzR [3]) [nM] | Ki (α5β3γ2 GABAA/BzR [4]) [nM] |
| --- | --- | --- | --- | --- | --- | --- | --- | --- |
| COc1ccc2c(c1)C(=O)N1CCCC1c1c(C(=O)OC(C)C)ncn1-2 (centres unmarked) [CM-E09b] | 55 | 19 | 22 | 20 | 0.45 | 69 |  |  |
| CC(C)(C)CC(=O)c1cc2c(cn1)[nH]c1ccccc12 [CM-A77] | 1000 | 105 | 51.9 | 11.5 | 42.6 | 1000 |  |  |
| O=C(OCC(F)(F)F)c1cc2c(cn1)[nH]c1ccccc12 [MMB-II-74] | 500 | 41.7 | 24.5 | 3 | 126 | 1000 |  |  |
| COc1ccc2c(c1)C(=O)N1CCC[C@H]1c1c(C(=O)OCC(F)(F)F)ncn1-2 [CM-E09a] | 490 | 122 | 192 | 176 | 9.2 | 718 |  |  |
| COc1ccc2c(c1)C(=O)N1CCC[C@H]1c1c(C(=O)OCc3ccccc3)ncn1-2 [CM-E10] | 215 | 14 | 26 | 23 | 0.51 | 96 |  |  |
| C#Cc1ccc2c(c1)C(=O)N1CCC[C@H]1c1c(-c3nc(C)no3)ncn1-2 [compound 7] |  |  |  |  |  |  | > 89 | 3.7 |
| CC(OC(=O)c1ncn2c1C1CCCN1C(=O)c1ccccc1-2)C(F)(F)F (centres unmarked) [MMB-III-14] | 333 | 6.9 | 13 | 13 | 1.1 | 333 |  |  |
| CC(C)OC(=O)c1ncn2c1[C@@H]1CCCN1C(=O)c1cc(Br)ccc1-2 [MMB-II-90] | 9 | 5.7 | 24 | 20 | 0.25 | 36 |  |  |
| CC(C)OC(=O)c1ncn2c1[C@@H]1CCCN1C(=O)c1ccccc1-2 [MMB-III-016] | 1070 | 2 | 1.97 | 3 | 0.26 | 211 |  |  |
| CC(C)(C)OC(=O)c1cc2c(cn1)[nH]c1ccc(I)cc12 [CM-A100] | 1000 | 124 | 44.9 | 14.5 | 65.3 | 1000 |  |  |
| CCC(OC(=O)c1ncn2c1C1CCCN1C(=O)c1cc(F)ccc1-2)C(F)(F)F (mixture of isomers) [CM-B47] | 2010 | 34 | 63 | 32 | 4.4 | 717 |  |  |
| CCOC(=O)c1cc2c(cn1)[nH]c1ccc(I)cc12 [CM-B01] | 1000 | 34 | 31 | 4.8 | 286 | 1000 |  |  |
| COc1ccc2c(c1)C(=O)N1CCCC1c1c(C(=O)OCC(C)C)ncn1-2 (centres unmarked) [CM-E11] | 394 | 161 | 308 | 333 | 14 | 750 |  |  |
| CCC(OC(=O)c1ncn2c1C1CCCN1C(=O)c1cc(Cl)ccc1-2)C(F)(F)F (mixture of isomers) [CM-B45] | 265 | 336 | 557 | 230 | 15 | 230 |  |  |
| CC[C@H](C)OC(=O)c1ncn2c1[C@@H]1CCCN1C(=O)c1cc(F)ccc1-2 [CM-B44 (ss)] | 379 | 12 | 43 | 32 | 4.3 | 485 |  |  |
